Reference: patent publication US11679098B2, “Methods for treating diseases” (UNIVERSITY OF LOUISVILLE RESEARCH FOUNDATION, INC., priority 2018, dated 2023)

How the values were obtained:
[1] = tested on: IMR-90 (non-malignant lung fibroblasts); test: MTT antiproliferative assay in IMR-90 cells; type: cell-based; details: Homo sapiens, 72 hrs treatment, read-out: MTT Antiproliferative Activity - IC50 (μM) IMR0 (non-malignant lung fibroblasts)
Experimental: (§1) Cell culture. A549 and IMR-90 cells were purchased from the American Type Culture Collection (ATCC), while HOP-62 and HOP-92 were obtained from the cell line repository at the National Cancer Institute. Cells were grown in the appropriate medium supplemented with 10% fetal bovine serum (FBS, Life Technologies, Grand Island, N.Y.), 62.5 μg/mL penicillin and 100 μg/mL streptomycin (Life Technologies) in a humidified incubator at 37° C. with 5% CO2. The media were as follows: Dulbecco's modified Eagle's medium (DMEM, Life Technologies) for A549 cells; RPMI 1640 (Life Technologies) for HOP-62 and HOP-92 cells; Eagle's minimal essential medium (EMEM) with Eagle's balanced salt solution (EBSS), 2 mM L-glutamine, 1500 mg/L sodium bicarbonate (Lonza, Walkersville, Md.), supplemented with 1 mM sodium pyruvate (Life Technologies) and non-essential amino acids (Life Technologies) for IMR-90 cells. Cell lines were verified with a 9-marker short tandem repeat profile and inter-species contamination test (Idexx BioResearch), although A549 cells utilized in proliferation assays were missing the Y allele at the amelogenin marker.
(§2) Cell proliferation & viability assays. Anti-proliferative activity of XB05 and other compounds was evaluated using a previously published 3-(4,5-dimethylthiazol-2-yl)-2,5-diphenyltetrazolium bromide (MTT) assay protocol (MORGAN “Tetrazolium (MTT) assay for cellular viability and activity” Methods Mol Biol. (1998) Vol. 79, pp. 179-83, which is herein incorporated by reference in its entirety, BATES et al. “Antiproliferative activity of G-rich oligonucleotides correlates with protein binding” J Biol Chem. (1999) Vol. 274, No. 37, pp. 26369-26377, which is herein incorporated by reference in its entirety, SALIPUR et al. “A novel small molecule that induces oxidative stress and selectively kills malignant cells” Free Radic Biol Med. (2014) Vol. 68, pp. 110-121, which is herein incorporated by reference in its entirety). Cells were seeded in quadruplicate wells in 96-well plates and allowed to adhere overnight. […] After 72 hrs of treatment with XB05 or other compounds, MTT (Sigma, St. Louis, Mo.) was added for 4 hrs prior to cell lysis. Each assay was performed in at least triplicate.
(§3) XB05 and related compounds were assessed for anti-proliferative activity in malignant (A549) and non-malignant (IMR-90) cells (Table A2).

[2] = tested on: A549 (lung adenocarcinoma); test: MTT antiproliferative assay in A549 cells; type: cell-based, human; details: Homo sapiens, 72 hrs treatment, MTT
Experimental: as §1, §2, §3

[3] = DTNB assay for reactivity with free thiols, cysteine; type: physicochemical; details: 0.25 mM cysteine, 30 min at 37° C., pH 8.0
Experimental: (§4) Dithiobis-2-nitrobenzioc acid (DTNB) assay for free sulfhydryls. Similar to previously described in SALIPUR et al. “A novel small molecule that induces oxidative stress and selectively kills malignant cells” Free Radic Biol Med. (2014) Vol. 68, pp. 110-121, which is herein incorporated by reference in its entirety, reactivity with free sulfhydryls was evaluated using DTNB (Sigma). Briefly, a 4× solution of DTNB (6 mM DTNB, 50 mM sodium acetate in 100 mM Tris-HCl, pH 8.0) and solutions of 0.5 mM cysteine (Sigma) and reduced glutathione (GSH, Sigma) in 100 mM Tris-HCl, pH 8.0 were freshly prepared. The 200 mM stock solutions of XB05, other compounds, diethylmaleate (Sigma), and maleimide (Sigma) were prepared in 100% DMSO, and subsequently diluted to 2× working solutions in 100 mM Tris-HCl, pH 8.0. Thiol compounds (final concentration 0.25 mM) and thiol-reactive compounds (final concentrations 0.04-5 mM) or vehicle were added in duplicate to a 96-well plate and incubated for 30 min at 37° C. DTNB solution was then added to each well (final concentration 400 μM), and incubated at room temperature for an additional 5 min. Absorbance at 412 nm was determined by a Biotek HT Synergy plate reader (Winooski, Vt.).

[4] = DTNB assay for reactivity with free thiols, reduced glutathione; type: physicochemical; details: 0.25 mM reduced glutathione, 30 min at 37° C., pH 8.0
Experimental: as §4

SMILES	IC50 [2]	IC50 [1]	DTNB Reactivity with Thiols - DTNB assay with Cysteine [3]	DTNB Reactivity with Thiols - DTNB assay with Glutathione [4]
CC(C)(C)OC(=O)NCCCCCCCCCC(O)C#CC(F)(F)Br (stereo not shown) [MNR-1-186]	> 10 µM	> 10 µM	–	–
CCCCCC(C)(O)C#CC(F)(F)Br (stereo not shown) [MNR-1-118]	8.2 µM	> 10 µM	ND (DTNB ND - not detected at concentrations up to 2.5 mM)	ND (DTNB ND - not detected at concentrations up to 2.5 mM)
CCCCC[C@@H](O)C#CC(F)(F)Br [MNR-3-38]	0.4 µM	1.5 µM	ND (DTNB ND - not detected at concentrations up to 2.5 mM)	ND (DTNB ND - not detected at concentrations up to 2.5 mM)
CCCCCCCC(O)C#CC(F)(F)Br (stereo not shown) [MNR-3-94]	0.9 µM	2.7 µM	–	–
O=C(CCCCC1SCC2NC(=O)NC21)NCCOCCOCCOCCOCCC(=O)NCCCCCCCCCC(O)C#CC(F)(F)Br (stereo not shown) [MNR-2-6]	> 10 µM	> 10 µM	–	–
CC/C=C\CCC(O)C#CC(F)(F)Br (stereo not shown) [JAB-4-169]	0.4 µM	3.8 µM	ND (DTNB ND - not detected at concentrations up to 2.5 mM)	ND (DTNB ND - not detected at concentrations up to 2.5 mM)
CCCCCC(=O)C#CC(F)(F)Br [JAB-4-163]	> 10 µM	> 10 µM	ND (DTNB ND - not detected at concentrations up to 2.5 mM)	ND (DTNB ND - not detected at concentrations up to 2.5 mM)
C#CC(O)CCCCC (stereo not shown) [Compound 1-Octyn-3-ol, 1-Octyn-3-ol]	> 10 µM	> 10 µM	Reactive	ND (DTNB ND - not detected at concentrations up to 2.5 mM)
CCCCCC(C#CC(F)(F)Br)OC1CCCCO1 (stereo not shown) [MNR-3-27]	1.9 µM	3.7 µM	–	–
CCCCCC(O)C#CCBr (stereo not shown) [MNR-3-92]	7.1 µM	8.7 µM	Reactive	Reactive
CCCCCC(O)C#CC(F)(F)Oc1ccc(F)cc1 (stereo not shown) [MNR-1-110]	> 10 µM	> 10 µM	ND (DTNB ND - not detected at concentrations up to 2.5 mM)	ND (DTNB ND - not detected at concentrations up to 2.5 mM)
CCCC(O)C#CC(F)(F)Br (stereo not shown) [MNR-1-122]	0.8 µM	1.1 µM	ND (DTNB ND - not detected at concentrations up to 2.5 mM)	ND (DTNB ND - not detected at concentrations up to 2.5 mM)
OC(C#CC(F)(F)Br)CCCCc1ccccc1 (stereo not shown) [MNR-1-129]	> 10 µM	> 10 µM	–	–
CCCCCC(O)C#CC(F)(F)F (stereo not shown) [JAB-4-156]	> 10 µM	> 10 µM	ND (DTNB ND - not detected at concentrations up to 2.5 mM)	ND (DTNB ND - not detected at concentrations up to 2.5 mM)
CCCCCC(O)C#CC(F)F (stereo not shown) [MNR-3-91]	> 10 µM	> 10 µM	–	–
CCCCCC(C#CC(F)(F)Br)OC (stereo not shown) [JAB-4-155]	3.5 µM	> 10 µM	ND (DTNB ND - not detected at concentrations up to 2.5 mM)	ND (DTNB ND - not detected at concentrations up to 2.5 mM)
OC(C#CC(F)(F)Br)c1ccccc1 (stereo not shown) [MNR-3-93]	> 10 µM	> 10 µM	–	–

Second part, led by results:

IC50 [2]	SMILES	IC50 [1]	DTNB Reactivity with Thiols - DTNB assay with Cysteine [3]	DTNB Reactivity with Thiols - DTNB assay with Glutathione [4]
0.9 µM	CCCCCC(C#CC(F)(F)Br)OC(C)=O (stereo not shown) [MNR-3-43]	5.4 µM	ND (DTNB ND - not detected at concentrations up to 2.5 mM)	ND (DTNB ND - not detected at concentrations up to 2.5 mM)
> 10 µM	CCCCCC(O)C#CC(F)(F)SCc1ccccc1 (stereo not shown) [MNR-1-111]	> 10 µM	ND (DTNB ND - not detected at concentrations up to 2.5 mM)	ND (DTNB ND - not detected at concentrations up to 2.5 mM)
1.1 µM	CCC#CCCCCCCCC(O)C#CC(F)(F)Br (stereo not shown) [MNR-1-147]	4 µM	–	–
> 10 µM	CC(C)C(O)C#CC(F)(F)Br (stereo not shown) [MNR-3-86]	> 10 µM	–	–
1 µM	CCCCCCCCCC(O)C#CC(F)(F)Br (stereo not shown) [MNR-3-69]	2.8 µM	–	–
> 10 µM	CC(C)(C)C(O)C#CC(F)(F)Br (stereo not shown) [MNR-3-85]	> 10 µM	–	–
1.9 µM	CCCC(C)C(O)C#CC(F)(F)Br (stereo not shown) [MNR-1-117]	7.9 µM	ND (DTNB ND - not detected at concentrations up to 2.5 mM)	ND (DTNB ND - not detected at concentrations up to 2.5 mM)
1.1 µM	CCCCCCCCCCCC(O)C#CC(F)(F)Br (stereo not shown) [MNR-3-89]	2.7 µM	–	–
1.2 µM	OC(C#CC(F)(F)Br)CCc1ccccc1 (stereo not shown) [MNR-3-82]	2.8 µM	–	–
> 10 µM	CCCCCC(Cl)C#CC(F)(F)Br (stereo not shown) [MNR-1-102]	> 10 µM	ND (DTNB ND - not detected at concentrations up to 2.5 mM)	Reactive
0.9 µM	OC(C#CC(F)(F)Br)C1CCCCC1 (stereo not shown) [MNR-3-90]	3.1 µM	–	–
2.1 µM	CCCCCCC#CC(F)(F)Br [JAB-4-158]	> 10 µM	ND (DTNB ND - not detected at concentrations up to 2.5 mM)	ND (DTNB ND - not detected at concentrations up to 2.5 mM)
4.8 µM	CCCCC[C@H](O)C#CC(F)(F)Br [MNR-3-41]	> 10 µM	–	–
> 10 µM	CCCCCC(=O)/C=C(\NCCC)C(F)(F)Br [JAB-4-165]	> 10 µM	ND (DTNB ND - not detected at concentrations up to 2.5 mM)	ND (DTNB ND - not detected at concentrations up to 2.5 mM)
